Test results published in EPA's ToxValDB 9.5 (doi:10.2903/j.efsa.2015.4020).

Columns and labels:
Bibionidae = settings: chronic/long-term; duration: 28 days
Apis mellifera = settings: acute, mortality
Folsomia candida = settings: chronic/long-term; duration: 28 days
Oryctolagus sp. = settings: reproduction developmental; body weight
Rattus norvegicus = settings: for NOAEL: body weight
Pimephales promelas = settings: mortality
Hypoaspis aculeifer = settings: chronic/long-term; duration: 28 days
Daphnia magna = settings: chronic/long-term; duration: 21 days; reproduction
Neomysis kadiakensis = settings: chronic/long-term; duration: 28 days; mortality
Aphidius rhopalosiphi = experiment: LR50; higher = less toxic; settings: not reported; mortality
Typhlodromus pyri = experiment: LR50; higher = less toxic; settings: not reported; mortality

## O=C1C=C(N(Cc2ccc(Cl)nc2)CC(F)F)CO1 [Flupyradifurone]
Bibionidae
  NOEC: 0.00681 mg/L
Apis mellifera; dermal
  LD50: 123 µg/piece
Apis mellifera; oral, unspecified
  LD50: 1.2 µg/piece
Folsomia candida
  NOEC: 1.44 mg/kg
Oryctolagus sp.
  NOAEL: 15 mg/kg-day
Colinus virginianus; acute, oral, diet, mortality
  LC50: > 470 mg/kg-day
Colinus virginianus; acute, oral, mortality
  LD50: 232 mg/kg-day
Colinus virginianus; reproduction developmental
  NOAEL: 14 mg/kg-day
Rattus norvegicus; acute, mortality
  LD50: 1610 mg/kg-day
Rattus norvegicus; chronic
  NOAEL: 6.4 mg/kg-day
Rattus norvegicus; reproduction developmental
  NOAEL: 6.4 mg/kg-day
Pimephales promelas; acute, duration: 96 hours
  LC50: > 70.5 µg/mL
Pimephales promelas; chronic/long-term, duration: 35 days
  NOEC: 4.41 mg/L
Hypoaspis aculeifer
  NOEC: 170 mg/kg
Tagia sp.; acute, duration: 14 days, mortality
  LC50: 186 mg/kg
Tagia sp.; chronic/long-term, duration: 56 days
  NOEC: 1.5 mg/kg
Daphnia magna
  NOEC: 3.2 mg/L
Neomysis kadiakensis
  NOEC: 0.0132 mg/L
Aphidius rhopalosiphi
  LR50: < 0.5 g/ha
Typhlodromus pyri
  LR50: 17 g/ha
